The values below come from patent US7855211B2, “Protein kinase inhibitors” (Eli Lilly and Company, priority 2008, dated 2010).

Each structure is given as a SMILES string.

Series [1] can be described thus: Rat Oral Bioavailability Assay. Type of series: in vivo. The following applies: plasma, 1 mg/kg, male Sprague Dawley rats, oral suspension vs intravenous, read-out: Fraction bioavailable relative to the intravenous dose (% F). As to the method: Male Sprague Dawley rats (body weight range 250-320 g) with indwelling femoral arterial cannulae are obtained from Charles River, Wilmington, Mass. 01887, USA. Test compound is administered intravenously in solution (2 mL/kg) in: 10% N-methyl pyrollidone/18% Captisol® in 22.5 mM phosphate buffer, pH 3. The final drug concentration is 0.25 mg/mL (free base equivalents). Blood samples are obtained using the indwelling cannula over 24 h. The animals are then administered an oral dose of test compound in suspension (5 mL/kg) in 1% w/v hydroxyethylcellulose/0.25% v/v polysorbate 80/0.05% v/v antifoam in purified water. The final drug concentration is 0.2 mg/mL (free base equivalents). […]
An internal standard compound (for normalisation) in acetonitrile/methanol (1:1, v/v) is added to samples of plasma to precipitate protein and the samples are centrifuged prior to analysis. The supernatants are analysed by injection and rapid gradient elution on a Javelin Betasil C18 column (20×2.1 mm cartridge, Mobile phase A: Water/1 M ammonium bicarbonate, 2000:10 v/v, Mobile Phase B: MeOH/1 M ammonium bicarbonate, 2000:10 v/v). The eluted analytes are detected by LC-MS-MS analysis using a Sciex API 4000 triple quadrupole mass spectrometer. Concentrations of compounds in plasma are determined from standards prepared under identical conditions. […]

The target of series [2] is T1, CDK4 (Homo sapiens, UniProt P11802).
T1 construct: purchased Proqinase 0142-0373-1
Put plainly: CDK4 Inhibition Assay. The class given is biochemical. To be noted: CDK4 kinase, 33P-ATP, CTRF substrate. The procedure:
All ligands, radiolabels, solvents, and reagents employed in the following assays are readily available from commercial sources, or can be readily synthesized by one skilled in the art.
10 μL of test compound in 20% DMSO, 20 μL of adenosine 5′-triphosphate (ATP) and C-Terminal Retinoblastoma Fragment (CTRF) (Upstate cat # 12-439) solution, and 10 μL of enzyme solution are mixed in a 96 well plate. The ATP and CRTF solution is prepared from a mixture of 40 μM ATP, 0.16 μCi [^33P] ATP and 1 μM CTRF diluted in kinase buffer of 68 mM 4-(2-hydroxyethyl)-1-piperazineethanesulfonic acid (HEPES) pH 7.4, 6.72 mM MgCl2, 6.72 mM dithiothreitol (DTT), and 0.013% TRITON™ X-100. The enzyme solution is prepared from 8 ng CDK4 enzyme (Proqinase cat # 0142-0373-1) diluted in the kinase buffer described above. Test compounds are serially diluted 1:3 in 20% DMSO to create a 10 point curve at a starting concentration of 20 μM. 20% DMSO buffer alone without added test compound is employed as a control, 500 mM ethylene diamine tetraacetic acid (EDTA) is used to determine the level of background ^33P in the absence of enzyme activity. Reagents are mixed and incubated for 90 min at 20° C. […] The wells are washed four times with 0.5% H3PO4 and the radioactivity incorporated is determined with a microplate scintillation counter (Microbeta Trilux, Wallac). […]

Series [3] concerns the target Pim-1 (Homo sapiens, UniProt P11309). Put plainly: Assay for Inhibition of PIM1 Kinase. The class given is biochemical. The procedure:
Pim-1 (human, 0.46 nM final concentration) is incubated with 8 mM MOPS pH 7.0, 0.2 mM EDTA, 100 μM of an appropriate substrate peptide (see Pim-1 kinase inhibition assay protocol as described in Chen, L. S. et al. (2009) Blood, DOI: 10.1182/blood-2009-03-212852), 10 mM MgAcetate and [γ-^33P-ATP] (specific activity approx. 500 cpm/pmol, concentration as required). The reaction is initiated by the addition of the MgATP mix and then incubated for 40 minutes at room temperature. The reaction is stopped by the addition of 3% phosphoric acid solution. 10 μL of the reaction is then spotted onto a P30 filtermat and washed three times for 5 minutes in 75 mM phosphoric acid and once in methanol prior to drying and scintillation counting. For compound inhibition testing, compounds provided as 10 mM stocks in 100% DMSO are diluted 1:10 in 100% DMSO to give a 50× stock of the top concentration of the curve. The 50× stock is then serially diluted 1:3 in 100% DMSO to create a 10 point concentration-response curve and diluted 1:50 (20 μM to 0.001 μM final in 2% final DMSO concentration) in the reaction mixture to determine compound activity. […] The percent inhibition determined from the controls on each plate and ten-point compound concentration data were then fit to a four-parameter logistic equation using ACTIVITYBASE 4.0. […]

The test system of series [4] is phosphorylation of Retinoblastoma Protein (pRb). Nature of the series: Inhibition of Phosphorylation of Retinoblastoma Protein (pRb) in COLO 205 cells. Type of series: cell-based. To be noted: Homo sapiens, 24 h exposure, read-out: IC50 (% phosphoRB positive). The procedure:
COLO 205 Cells from the American Type Culture Collection (ATCC) are plated at 2000 cells/well in 96 well […] BIOCOAT™ plates, and are incubated in RPMI 1640 medium (e.g., GIBCO, catalog #52400-025) with 10% Fetal Bovine Serum (FBS e.g. Gibco cat #11000-144) and 1% sodium pyruvate (Gibco catalog #11360-070) in 37° C., 5% CO2 for 24 h. Cells are treated by adding test compound to the medium, dosing at 10 points of 1:3 dilutions across the range of 20 μM to 0.001 μM, and with final DMSO concentration at 0.25%. After 24 h exposure to the compounds, cells are fixed with the PREFER™ fixative [Anatech LTD., Cat # 414] for 30 min at RT, then are permeabilized with 0.1% TRITON® X100 in phosphate buffered saline (PBS) solution for 15 min at RT. […] Fluorescence plates are scanned with ACUMEN EXPLORER™ [Laser-scanning fluorescence microplate cytometer (comprising of 488 nm argon ion laser excitation and multiple photomultiplier tube detection), manufactured by TTP LABTECH LTD] to measure phosphorylation of Rb protein and DNA content. […] Assay outputs are percentage of each identified subpopulations, % phosphoRB positive, % 2 N and % 4 N. The IC50 and EC50 values are determined by curve fitting to a four parameter logistic for each output using ACTIVITY BASE™. […]

Pim-1, sequence (P11309 whole entry): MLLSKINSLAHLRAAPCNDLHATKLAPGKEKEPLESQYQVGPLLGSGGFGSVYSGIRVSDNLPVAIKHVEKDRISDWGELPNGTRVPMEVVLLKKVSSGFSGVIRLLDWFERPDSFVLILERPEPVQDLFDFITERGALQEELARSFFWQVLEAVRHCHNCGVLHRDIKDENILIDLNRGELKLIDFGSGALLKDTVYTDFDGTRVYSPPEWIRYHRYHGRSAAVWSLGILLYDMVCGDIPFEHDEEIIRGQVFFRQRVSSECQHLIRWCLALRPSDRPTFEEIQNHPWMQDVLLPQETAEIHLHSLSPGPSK
T1 sequence (P11802 whole entry): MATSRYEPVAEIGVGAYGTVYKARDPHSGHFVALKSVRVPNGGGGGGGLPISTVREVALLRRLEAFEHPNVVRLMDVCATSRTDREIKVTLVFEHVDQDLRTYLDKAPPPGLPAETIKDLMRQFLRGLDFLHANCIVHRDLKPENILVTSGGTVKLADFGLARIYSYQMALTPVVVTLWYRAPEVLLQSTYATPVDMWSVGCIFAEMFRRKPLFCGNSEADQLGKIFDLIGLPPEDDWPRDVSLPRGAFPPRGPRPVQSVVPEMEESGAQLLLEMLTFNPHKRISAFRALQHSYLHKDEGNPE
T1 sequence (P30281 whole entry partner): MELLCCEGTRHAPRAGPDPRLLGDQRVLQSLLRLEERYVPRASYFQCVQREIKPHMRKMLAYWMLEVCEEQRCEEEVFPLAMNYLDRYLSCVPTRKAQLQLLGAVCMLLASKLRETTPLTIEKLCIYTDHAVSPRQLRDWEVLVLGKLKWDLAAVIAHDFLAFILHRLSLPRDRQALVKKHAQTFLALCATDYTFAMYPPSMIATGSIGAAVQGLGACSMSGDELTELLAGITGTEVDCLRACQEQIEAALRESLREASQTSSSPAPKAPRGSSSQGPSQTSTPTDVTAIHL

For the molecule `CS(=O)(=O)O.Cc1nc2ccc(-c3nc(Nc4ccc(C5CCN(C(C)C)CC5)cn4)ncc3F)cc2n1C1CCCC1` [Example 22, [4-(3-Cyclopentyl-2-methyl-3H-benzoimidazol-5-yl)-5-fluoro-pyrimidin-2-yl]-(1′-isopropyl-1′,2′,3′,4′,5′,6′-hexahydro-[3,4′]bipyridinyl-6-yl)-amine methanesulfonate], the bioavailability in series [1] worked out at 48.5%.

In the case of `CCN1CCC(Cc2ccc(Nc3ncc(F)c(-c4cc(F)c5nc(C)n(C(C)C)c5c4)n3)nc2C)CC1` [Example 25, [5-(1-Ethyl-piperidin-4-ylmethyl)-6-methyl-pyridin-2-yl]-[5-fluoro-4-(7-fluoro-3-isopropyl-2-methyl-3H-benzoimidazol-5-yl)-pyrimidin-2-yl]-amine methanesulfonate], the values for the IC50 in series [2], in series [3] and in series [4] were 3 nM, 3 nM and approximately 100 nM, respectively.
